Measured values from ChEMBL document CHEMBL1127065, “Nucleoside conjugates. 13. Synthesis and antitumor activity of 1-beta-D-arabinofuranosylcytosine conjugates of thioether lipids with improved water solubility” (J Med Chem, 1993).
“And” between values parts separate entries of the source, which are not always exact repeats. Equal values may be shown once.

Legend:
Mus musculus [1] = assay: Median T/C calculated based on survivors at 300 mg/kg (309 umol) per day against Ip-implanted L1210 lymphoid leukemia mice; format: functional
Mus musculus [2] = assay: Percent increase in life span at 150 mg/kg (154 umol) per day; format: functional
Mus musculus [3] = assay: Percent increase in life span at 300 mg/kg (309 umol) per day; format: functional
[4] = Water solubility was determined by UV absorption at 273 nm; format: ADME
Mus musculus [5] = assay: Number of survivors in mice bearing ip-implanted L1210 lymphoid leukemia after 45 day; format: functional
Mus musculus [6] = assay: Median T/C calculated based on survivors at 150 mg/kg (154 umol) per day against Ip-implanted L1210 lymphoid leukemia mice; format: functional
Mus musculus [7] = assay: Median T/C calculated based on survivors at 200 mg/kg (218 umol) per day; format: functional
Mus musculus [8] = assay: Percent increase in life span at 300 mg/kg (328 umol) per day; format: functional
Mus musculus [9] = assay: Percent increase in life span at 200 mg/kg (218 umol) per day; format: functional
Mus musculus [10] = assay: Median T/C calculated based on survivors at 300 mg/kg (328 umol) per day against Ip-implanted L1210 lymphoid leukemia mice; format: functional
Mus musculus [11] = assay: Median T/C calculated based on survivors at 300 mg/kg (318 umol) per day against Ip-implanted L1210 lymphoid leukemia mice; format: functional
Mus musculus [12] = assay: Percent increase in life span at 300 mg/kg (318 umol) per day; format: functional
Mus musculus [13] = assay: Median T/C calculated based on survivors at 400 mg/kg (400 umol) per day against Ip-implanted L1210 lymphoid leukemia mice; format: functional
Mus musculus [14] = assay: Percent increase in life span at 150 mg/kg (150 umol) per day; format: functional
Mus musculus [15] = assay: Percent increase in life span at 400 mg/kg (400 umol) per day; format: functional
Mus musculus [16] = assay: Median T/C calculated based on survivors at 150 mg/kg (150 umol) per day against Ip-implanted L1210 lymphoid leukemia mice; format: functional
Mus musculus [17] = assay: Median T/C calculated based on survivors at 150 mg/kg (164 umol) per day; format: functional
Mus musculus [18] = assay: Percent increase in life span at 400 mg/kg (437 umol) per day; format: functional
Mus musculus [19] = assay: Percent increase in life span at 150 mg/kg (164 umol) per day; format: functional
Mus musculus [20] = assay: Median T/C calculated based on survivors at 400 mg/kg (437 umol) per day against Ip-implanted L1210 lymphoid leukemia mice; format: functional
Mus musculus [21] = assay: Median T/C calculated based on survivors at 400 mg/kg (389 umol) per day; format: functional
Mus musculus [22] = assay: Percent increase in life span at 400 mg/kg (389 umol) per day against Ip-implanted L1210 lymphoid leukemia mice; format: functional
Mus musculus [23] = assay: Change in weight in mice bearing ip-implanted L1210 lymphoid leukemia on day 8 at 300 mg/kg or 309 umol/kg per day; format: functional
Mus musculus [24] = assay: Number of survivors in mice bearing ip-implanted L1210 lymphoid leukemia after 45 day against Ip-implanted L1210 lymphoid leukemia mice; format: functional
Mus musculus [25] = assay: Median T/C calculated based on survivors at 300 mg/kg (292 umol) per day against Ip-implanted L1210 lymphoid leukemia mice; format: functional
Mus musculus [26] = assay: Percent increase in life span at 300 mg/kg (292 umol) per day; format: functional
Mus musculus [27] = assay: Median T/C calculated based on survivors at 150 mg/kg (146 umol) per day against Ip-implanted L1210 lymphoid leukemia mice; format: functional
Mus musculus [28] = assay: Change in weight in mice bearing ip-implanted L1210 lymphoid leukemia on day 8 at 300 mg/kg or 292 umol/kg per day; format: functional
Mus musculus [29] = assay: Percent increase in life span at 400 mg/kg (411 umol) per day; format: functional
Mus musculus [30] = assay: Median T/C calculated based on survivors at 400 mg/kg (411 umol) per day against Ip-implanted L1210 lymphoid leukemia mice; format: functional
Mus musculus [31] = assay: Change in weight in mice bearing ip-implanted L1210 lymphoid leukemia on day 8 at 200 mg/kg or 822 umol/kg per day; format: functional
Mus musculus [32] = assay: Median T/C calculated based on survivors at 100 mg/kg (411 umol) per day against Ip-implanted L1210 lymphoid leukemia mice; format: functional
Mus musculus [33] = assay: Median T/C calculated based on survivors at 200 mg/kg (822 umol) per day against Ip-implanted L1210 lymphoid leukemia mice; format: functional
Mus musculus [34] = assay: Percent increase in life span at 71 mg/kg (292 umol) per day; format: functional
Mus musculus [35] = assay: Percent increase in life span at 100 mg/kg (411 umol) per day; format: functional
Mus musculus [36] = assay: Change in weight in mice bearing ip-implanted L1210 lymphoid leukemia on day 8 at 71 mg/kg or 292 umol/kg per day; format: functional
Mus musculus [37] = assay: Percent increase in life span at 200 mg/kg (822 umol) per day; format: functional
Mus musculus [38] = assay: Change in weight in mice bearing ip-implanted L1210 lymphoid leukemia on day 8 at 100 mg/kg or 411 umol/kg per day; format: functional
Mus musculus [39] = assay: Median T/C calculated based on survivors at 71 mg/kg (292 umol) per day against Ip-implanted L1210 lymphoid leukemia mice; format: functional
Mus musculus [40] = assay: Percent increase in life span at 300 mg/kg (300 umol) per day; format: functional
Mus musculus [41] = assay: Median T/C calculated based on survivors at 300 mg/kg (300 umol) per day against Ip-implanted L1210 lymphoid leukemia mice; format: functional

## CCCCCCCCCCCCCCCCCCSCC(COP(=O)([O-])OP(=O)([O-])OC[C@H]1OC(n2ccc(N)nc2=O)[C@@H](O)[C@@H]1O)OC(=O)CCCCCCCCCCC.[Na+].[Na+] (some centres not stated)
Mus musculus [1]
  Median T/C: 25
Mus musculus [2]
  ILS at 150 mg/kg: 371%
Mus musculus [3]
  ILS at 300 mg/kg: 213%
[4]
  solubility: > 54 mM
Mus musculus [5]
  Survivors: 1 and 2
Mus musculus [6]
  Median T/C: 33

## CCCCCCCCCCCCCC(=O)OC(COP(=O)([O-])OP(=O)([O-])OC[C@H]1OC(n2ccc(N)nc2=O)[C@@H](O)[C@@H]1O)CSCCCCCCCCCCCC.[Na+].[Na+] (some centres not stated)
Mus musculus [7]
  Median T/C: >45
Mus musculus [8]
  ILS at 300 mg/kg: 81%
Mus musculus [9]
  ILS at 200 mg/kg: 463%
Mus musculus [10]
  Median T/C: 14.5
[4]
  solubility: > 68 mM

## CCCCCCCCCCCCCCCCSCC(COP(=O)([O-])OP(=O)([O-])OC[C@H]1OC(n2ccc(N)nc2=O)[C@@H](O)[C@@H]1O)OC(=O)CCCCCCCCCCC.[Na+].[Na+] (some centres not stated)
Mus musculus [11]
  Median T/C: 19.5
Mus musculus [12]
  ILS at 300 mg/kg: 178%
[4]
  solubility: > 64 mM
Mus musculus [5]
  Survivors: 2

## CCCCCCCCCCCCCCCCCCSCC(COP(=O)([O-])OP(=O)([O-])OC[C@H]1OC(n2ccc(N)nc2=O)[C@@H](O)[C@@H]1O)OC(=O)CCCCCCCCCCCCC.[Na+].[Na+] (some centres not stated)
Mus musculus [13]
  Median T/C: 25
Mus musculus [14]
  ILS at 150 mg/kg: > 464%
Mus musculus [15]
  ILS at 400 mg/kg: 213%
Mus musculus [16]
  Median T/C: 39.5
[4]
  solubility: > 62 mM
Mus musculus [5]
  Survivors: 1 and 3

## CCCCCCCCCCCCCCCC(=O)OC(COP(=O)([O-])OP(=O)([O-])OC[C@H]1OC(n2ccc(N)nc2=O)[C@@H](O)[C@@H]1O)CSCCCCCCCCCC.[Na+].[Na+] (some centres not stated)
Mus musculus [17]
  Median T/C: 21
Mus musculus [18]
  ILS at 400 mg/kg: 114%
Mus musculus [19]
  ILS at 150 mg/kg: 200%
[4]
  solubility: > 58 mM
Mus musculus [5]
  Survivors: 0
Mus musculus [20]
  Median T/C: 15

## CCCCCCCCCCCCCCCCCC(=O)OC(COP(=O)([O-])OP(=O)([O-])OC[C@H]1OC(n2ccc(N)nc2=O)[C@@H](O)[C@@H]1O)CSCCCCCCCCCCCCCCCC.[Na+].[Na+] (some centres not stated)
Mus musculus [21]
  Median T/C: >43.5
Mus musculus [22]
  ILS at 400 mg/kg: > 521%
[4]
  solubility: 0.2 mM
Mus musculus [5]
  Survivors: 3

## CCCCCCCCCCCCCCCCSCC(COP(=O)([O-])OP(=O)([O-])OC[C@H]1OC(n2ccc(N)nc2=O)[C@@H](O)[C@@H]1O)OC(=O)CCCCCCCCCCCCC.[Na+].[Na+] (some centres not stated)
Mus musculus [23]
  Weight change: -1.8 g mouse-1
Mus musculus [1]
  Median T/C: 34
Mus musculus [3]
  ILS at 300 mg/kg: 386%
[4]
  solubility: > 53 mM
Mus musculus [5]
  Survivors: 2

## CCCCCCCCCCCCCCCCCCSCC(COP(=O)([O-])OP(=O)([O-])OC[C@H]1OC(n2ccc(N)nc2=O)[C@@H](O)[C@@H]1O)OC(=O)CCCCCCCCCCCCCCC.[Na+].[Na+] (some centres not stated) [CYTOROS]
Mus musculus [24]
  Survivors: 4
Mus musculus [25]
  Median T/C: >45
Mus musculus [26]
  ILS: >543% and >293%
Mus musculus [27]
  Median T/C: 27.5
Mus musculus [28]
  Weight change: -2.4 g mouse-1
[4]
  solubility: 0.2 mM
Mus musculus [5]
  Survivors: 1

## CCCCCCCCCCCCCCCC(=O)OC(COP(=O)([O-])OP(=O)([O-])OC[C@H]1OC(n2ccc(N)nc2=O)[C@@H](O)[C@@H]1O)CSCCCCCCCCCCCCCC.[Na+].[Na+] (some centres not stated)
Mus musculus [23]
  Weight change: 0.5 g mouse-1
Mus musculus [29]
  ILS: >421% and 393%
Mus musculus [2]
  ILS at 150 mg/kg: 321%
[4]
  solubility: 1.5 mM
Mus musculus [5]
  Survivors: 3 and 1 and 2
Mus musculus [6]
  Median T/C: 29.5
Mus musculus [30]
  Median T/C: >36.5 and 34.5

## Nc1ccn([C@@H]2O[C@H](CO)[C@@H](O)[C@@H]2O)c(=O)n1 [CYTARABINE]
Mus musculus [31]
  Weight change: -6.1 g mouse-1
Mus musculus [32]
  Median T/C: 16
Mus musculus [33]
  Median T/C: 14
Mus musculus [34]
  ILS at 71 mg/kg: 23%
Mus musculus [35]
  ILS at 100 mg/kg: 129%
Mus musculus [36]
  Weight change: -3.8 g mouse-1
Mus musculus [37]
  ILS at 200 mg/kg: 100%
Mus musculus [38]
  Weight change: -3.1 g mouse-1
Mus musculus [39]
  Median T/C: 8
Mus musculus [5]
  Survivors: 0

## CCCCCCCCCCCCCCSCC(COP(=O)([O-])OP(=O)([O-])OC[C@H]1OC(n2ccc(N)nc2=O)[C@@H](O)[C@@H]1O)OC(=O)CCCCCCCCCCCCC.[Na+].[Na+] (some centres not stated)
Mus musculus [11]
  Median T/C: 24
Mus musculus [12]
  ILS at 300 mg/kg: 243%
[4]
  solubility: > 60 mM
Mus musculus [5]
  Survivors: 2

## CCCCCCCCCCCCCCSCC(COP(=O)([O-])OP(=O)([O-])OC[C@H]1OC(n2ccc(N)nc2=O)[C@@H](O)[C@@H]1O)OC(=O)CCCCCCCCCCC.[Na+].[Na+] (some centres not stated)
Mus musculus [18]
  ILS at 400 mg/kg: 129%
[4]
  solubility: > 50 mM
Mus musculus [5]
  Survivors: 0
Mus musculus [20]
  Median T/C: 16

## CCCCCCCCCCCCCCCCSCC(COP(=O)([O-])OP(=O)([O-])OC[C@H]1OC(n2ccc(N)nc2=O)[C@@H](O)[C@@H]1O)OC(=O)CCCCCCCCCCCCCCC.[Na+].[Na+] (some centres not stated)
Mus musculus [40]
  ILS at 300 mg/kg: > 436%
Mus musculus [41]
  Median T/C: 37.5
[4]
  solubility: 0.2 mM
Mus musculus [5]
  Survivors: 2
